# Measured values reported in ChEMBL document CHEMBL4270586, “Novel hydrazido benzenesulfonamides-isatin conjugates: Synthesis, carbonic anhydrase inhibitory activity and molecular modeling studies” (Eur J Med Chem, 2018).
# Target: Carbonic anhydrase 9 (Homo sapiens, UniProt Q16790)
# Experiment: Inhibition of recombinant human carbonic anhydrase 9 incubated for 15 mins prior to testing by stopped flow CO2 hydration assay
row,Structure (SMILES),Ki [nM]
1,CC(C)N1C(=O)C(=NNC(=O)c2ccc(S(N)(=O)=O)cc2)c2ccccc21,177
2,COc1ccc2c(c1)C(=NNC(=O)c1ccc(S(N)(=O)=O)cc1)C(=O)N2,264
3,Cc1cc(C)c2c(c1)C(=NNC(=O)c1ccc(S(N)(=O)=O)cc1)C(=O)N2,716
4,NS(=O)(=O)c1ccc(C(=O)NN=C2C(=O)Nc3ccc(Br)cc32)cc1,101
5,NS(=O)(=O)c1ccc(C(=O)NN=C2C(=O)Nc3ccccc32)cc1,174
6,CCCN1C(=O)C(=NNC(=O)c2ccc(S(N)(=O)=O)cc2)c2ccccc21,30.1
7,NS(=O)(=O)c1ccc(C(=O)NN=C2C(=O)N(Cc3ccc(F)cc3)c3ccccc32)cc1,148
8,Cc1ccc2c(c1)C(=NNC(=O)c1ccc(S(N)(=O)=O)cc1)C(=O)N2,197
9,CCCCN1C(=O)C(=NNC(=O)c2ccc(S(N)(=O)=O)cc2)c2ccccc21,27.4

# Next, values leading:
row,Ki [nM],Structure (SMILES)
1,25.2,NS(=O)(=O)c1ccc(C(=O)NN=C2C(=O)N(Cc3ccccc3)c3ccccc32)cc1
2,23.8,NS(=O)(=O)c1ccc(C(=O)NN=C2C(=O)Nc3ccc([N+](=O)[O-])cc32)cc1
3,32.3,NS(=O)(=O)c1ccc(C(=O)NN=C2C(=O)Nc3ccc(F)cc32)cc1
4,17.7,CCOC(=O)CN1C(=O)C(=NNC(=O)c2ccc(S(N)(=O)=O)cc2)c2ccccc21
5,30.6,CN1C(=O)C(=NNC(=O)c2ccc(S(N)(=O)=O)cc2)c2ccccc21
6,81.2,Cc1ccc(CN2C(=O)C(=NNC(=O)c3ccc(S(N)(=O)=O)cc3)c3ccccc32)cc1
7,8.9,CCN1C(=O)C(=NNC(=O)c2ccc(S(N)(=O)=O)cc2)c2ccccc21
8,77.9,C=CCN1C(=O)C(=NNC(=O)c2ccc(S(N)(=O)=O)cc2)c2ccccc21
9,31.5,NS(=O)(=O)c1ccc(C(=O)NN=C2C(=O)Nc3ccc(Cl)cc32)cc1
